Data reported in ChEMBL document CHEMBL1123898, “Antitumor imidazotetrazines. 14. Synthesis and antitumor activity of 6- and 8-substituted imidazo[5,1-d]-1,2,3,5-tetrazinones and 8-substituted pyrazolo[5,1-d]-1,2,3,5-tetrazinones” (1987).

How the values were obtained:
Format in all cases: functional
L1210 [1] = assay: Antitumor activity was assessed against L1210 tumors in B6D2F1 mouse by inoculation of 10e5 tumor cells through intravenous route and mean death of animals (treated/control) was reported at 100 mg/kg peroral dose; conditions: route oral
L1210 [2] = assay: Antitumor activity was assessed against L1210 tumors in B6D2F1 mouse by inoculation of 10e5 tumor cells through intravenous route and mean death of animals (treated/control) was reported at 200 mg/kg peroral dose; conditions: route oral
L1210 [3] = assay: Antitumor activity was assessed against L1210 tumors in B6D2F1 mouse by inoculation of 10e5 tumor cells through intravenous route and mean death of animals (treated/control) was reported at 50 mg/kg peroral dose; conditions: route oral
L1210 [4] = assay: Antitumor activity was assessed against L1210 tumors in B6D2F1 mouse by inoculation of 10e5 tumor cells through iv route and mean death of animals (treated/control) was reported at 40 mg/kg po dose
L1210 [5] = assay: Antitumor activity was assessed against L1210 tumors in B6D2F1 mouse by inoculation of 10e5 tumor cells through iv route and mean death of animals (treated/control) was reported at 80 mg/kg po dose
L1210 [6] = assay: Antitumor activity was assessed against L1210 tumors in B6D2F1 mouse by inoculation of 10e5 tumor cells through iv route and mean death of animals (treated/control) was reported at 10 mg/kg po dose
L1210 [7] = assay: Antitumor activity was assessed against L1210 tumors in B6D2F1 mouse by inoculation of 10e5 tumor cells through iv route and mean death of animals (treated/control) was reported at 160 mg/kg po dose
[8] = Antitumor activity was assessed against TLX5 tumors in CBA/CA mouse by inoculation of 2 x 10e5 tumor cells through sc route and mean death of animals (treated/control) was reported at 160 mg/kg dose; conditions: route subcutaneous
[9] = Antitumor activity was assessed against TLX5 tumors in CBA/CA mouse by inoculation of 2 x 10e5 tumor cells through sc route and mean death of animals (treated/control) was reported at 20 mg/kg dose; conditions: route subcutaneous
[10] = Antitumor activity was assessed against TLX5 tumors in CBA/CA mouse by inoculation of 2 x 10e5 tumor cells through sc route and mean death of animals (treated/control) was reported at 320 mg/kg dose; conditions: route subcutaneous
[11] = Antitumor activity was assessed against TLX5 tumors in CBA/CA mouse by inoculation of 2 x 10e5 tumor cells through sc route and mean death of animals (treated/control) was reported at 40 mg/kg dose; conditions: route subcutaneous
[12] = Antitumor activity was assessed against TLX5 tumors in CBA/CA mouse by inoculation of 2 x 10e5 tumor cells through sc route and mean death of animals (treated/control) was reported at 80 mg/kg dose; conditions: route subcutaneous
[13] = Antitumor activity was assessed against TLX5 tumors in CBA/CA mouse by inoculation of 2 x 10e5 tumor cells through sc route and number of survivors to duration was reported at 40 mg/kg ip dose; 2/5; conditions: route subcutaneous
[14] = Antitumor activity was assessed against TLX5 tumors in CBA/CA mouse by inoculation of 2 x 10e5 tumor cells through sc route and number of survivors to duration was reported at 80 mg/kg ip dose; 5/5; conditions: route subcutaneous
L1210 [15] = assay: Antitumor activity was assessed against L1210 tumors in B6D2F1 mouse by inoculation of 10e5 tumor cells through iv route and mean death of animals (treated/control) was reported at 20 mg/kg po dose
L1210 [16] = assay: Antitumor activity was assessed against L1210 tumors in B6D2F1 mouse by inoculation of 10e5 tumor cells through iv route and mean death of animals (treated/control) was reported at 50 mg/kg po dose
L1210 [17] = assay: Antitumor activity was assessed against L1210 tumors in B6D2F1 mouse by inoculation of 10e5 tumor cells through iv route and mean death of animals (treated/control) was reported at 100 mg/kg po dose
L1210 [18] = assay: Antitumor activity was assessed against L1210 tumors in B6D2F1 mouse by inoculation of 10e5 tumor cells through iv route and mean death of animals (treated/control) was reported at 200 mg/kg po dose
L1210 [19] = assay: Antitumor activity was assessed against L1210 tumors in B6D2F1 mouse by inoculation of 10e5 tumor cells through iv route and number of Survivors to duration was reported at 10 mg/kg peroral dose; 1/7; conditions: route oral
L1210 [20] = assay: Antitumor activity was assessed against L1210 tumors in B6D2F1 mouse by inoculation of 10e5 tumor cells through iv route and number of Survivors to duration was reported at 20 mg/kg peroral dose; 6/7; conditions: route oral
L1210 [21] = assay: Antitumor activity was assessed against L1210 tumors in B6D2F1 mouse by inoculation of 10e5 tumor cells through iv route and mean death of animals (treated/control) was reported at 5 mg/kg peroral dose; conditions: route oral
L1210 [22] = assay: Antitumor activity was assessed against L1210 tumors in B6D2F1 mouse by inoculation of 10e5 tumor cells through iv route and mean death of animals (treated/control) was reported at 10 mg/kg peroral dose; conditions: route oral
L1210 [23] = assay: Antitumor activity was assessed against L1210 tumors in B6D2F1 mouse by inoculation of 10e5 tumor cells through iv route and mean death of animals (treated/control) was reported at 2.5 mg/kg peroral dose; conditions: route oral
L1210 [24] = assay: Antitumor activity was assessed against L1210 tumors in B6D2F1 mouse by inoculation of 10e5 tumor cells through iv route and mean death of animals (treated/control) was reported at 20 mg/kg peroral dose; conditions: route oral
[25] = Antitumor activity was assessed against TLX5 tumors in CBA/CA mouse by inoculation of 2 x 10e5 tumor cells through sc route and mean death of animals (treated/control) was reported at 5 mg/kg dose; conditions: route subcutaneous
[26] = Antitumor activity was assessed against TLX5 tumors in CBA/CA mouse by inoculation of 2 x 10e5 tumor cells through sc route and number of Survivors to duration was reported at 20 mg/kg ip dose; 5/5; conditions: route subcutaneous
[27] = Antitumor activity was assessed against TLX5 tumors in CBA/CA mouse by inoculation of 2 x 10e5 tumor cells through sc route and mean death of animals (treated/control) was reported at 10 mg/kg dose; conditions: route subcutaneous

`O=c1n(CCCl)nnc2c(-c3ccccc3)ncn12` gave a T/C (L1210 [1]) of 100%, a T/C (L1210 [2]) of 100% and a T/C (L1210 [3]) of 100%.
In the case of `Cc1nc(C(N)=O)c2nnn(CCCl)c(=O)n12`, the T/C (L1210 [4]) is reported as 180%, the T/C (L1210 [5]) is reported as 248% and the T/C (L1210 [6]) is reported as 128%. The T/C (L1210 [7]) was 267%, the T/C [8] was 80% and the T/C [9] was 176%. For the same compound, the T/C [10] was 66%, the T/C [11] was over 343% and the T/C [12] was over 550%. The Survivors [13] was 2 and the Survivors [14] was 5.
`CN(C(=O)c1ncn2c(=O)n(CCCl)nnc12)c1ccccc1` gave a T/C (L1210 [1]) of 100%, a T/C (L1210 [2]) of 100% and a T/C (L1210 [3]) of 100%.
Work on `CCc1nc(C(N)=O)c2nnn(CCCl)c(=O)n12` yielded a T/C (L1210 [15]) of 145%, a T/C (L1210 [4]) of 212% and a T/C (L1210 [6]) of 105%.
`CC(C)c1nc(C(N)=O)c2nnn(CCCl)c(=O)n12` gave a T/C (L1210 [16]) of 100%, a T/C (L1210 [17]) of 104% and a T/C (L1210 [18]) of 137%.
With `O=c1n(CCCl)nnc2c([N+](=O)[O-])ncn12` the T/C (L1210 [1]) was 98%, the T/C (L1210 [2]) was 98% and the T/C (L1210 [3]) was 98%.
Work on `NS(=O)(=O)c1ncn2c(=O)n(CCCl)nnc12` yielded a Survivors (L1210 [19]) of 1, a Survivors (L1210 [20]) of 6 and a T/C (L1210 [21]) of 207%. The T/C (L1210 [22]) was over 376%, the T/C (L1210 [23]) was 136% and the T/C (L1210 [24]) was over 605%. It also gave a T/C [9] of over 476%, a T/C [11] of 119% and a T/C [25] of 121%. For the same compound, the Survivors [26] was 5 and the T/C [27] was 160%.
